Source: ChEMBL document CHEMBL3808363, “2-(Thienothiazolylimino)-1,3-thiazolidin-4-ones inhibit cell division cycle 25 A phosphatase” (Bioorg Med Chem, 2016)
The source made the active and inactive calls. No cut-off for these calls is given here.

How the values were obtained:
[1] = target: T1, M-phase inducer phosphatase 1 (Homo sapiens, UniProt P30304); test: (§1) Inhibition of human recombinant full length GST-tagged CDC25A transfected in Escherichia coli BL21-DE3 using 3-O-methylfluorescein phosphate as substrate incubated for 20 mins followed by substrate addition measured every 10 mins for 2 hrs by fluorimetric assay
T1 sequence (P30304 whole entry): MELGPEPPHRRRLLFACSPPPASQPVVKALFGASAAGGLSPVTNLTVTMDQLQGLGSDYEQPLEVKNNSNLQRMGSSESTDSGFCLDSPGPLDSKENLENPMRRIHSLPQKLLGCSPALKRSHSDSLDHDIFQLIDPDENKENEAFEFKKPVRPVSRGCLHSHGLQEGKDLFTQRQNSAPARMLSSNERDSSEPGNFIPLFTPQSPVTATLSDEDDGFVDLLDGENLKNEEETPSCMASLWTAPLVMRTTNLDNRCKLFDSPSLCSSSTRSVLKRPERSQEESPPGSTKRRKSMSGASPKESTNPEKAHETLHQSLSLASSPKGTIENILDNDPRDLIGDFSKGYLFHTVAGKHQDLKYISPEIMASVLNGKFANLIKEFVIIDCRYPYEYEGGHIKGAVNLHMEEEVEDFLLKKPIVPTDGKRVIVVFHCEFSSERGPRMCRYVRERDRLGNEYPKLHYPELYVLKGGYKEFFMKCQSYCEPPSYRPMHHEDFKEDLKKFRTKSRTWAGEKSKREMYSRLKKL

[2] = target: T1, M-phase inducer phosphatase 1; test: (§2) Mixed type inhibition of human recombinant full length GST-tagged CDC25A transfected in Escherichia coli BL21-DE3 assessed as enzyme/substrate/inhibitor complex using 3-O-methylfluorescein phosphate as substrate at 20 uM incubated for 20 mins followed by substrate addition measured every 10 mins for 2 hrs by fluorimetric assay
MCF7 [3] = test: Cell cycle arrest in human MCF7 cells assessed as accumulation at S phase at IC50 concentration after 48 hrs by propidium iodide staining-based flow cytometry (reference value: 19.5 +/- 0.6%); type: functional
[4] = target: T2, M-phase inducer phosphatase 1 (Homo sapiens) (UniProt P30304); test: as §1, with “as substrate at 10 uM incubated for” for “as substrate incubated for”, “fluorimetric assay in presence of 0.5% triton X 100” for “fluorimetric assay”
T2 sequence (whole entry): T1 sequence (P30304 whole entry)

HT-29 = test: Cytotoxicity against human HT-29 cells assessed as inhibition of cell growth after 72 hrs by MTT assay; type: functional, cell-based; settings: HT-29, 72 h
[5] = target: T2, M-phase inducer phosphatase 1 (Homo sapiens); test: (§3) Inhibition of human recombinant full length GST-tagged CDC25A transfected in Escherichia coli BL21-DE3 using 3-O-methylfluorescein phosphate as substrate at 10 uM incubated for 20 mins followed by substrate addition measured every 10 mins for 2 hrs by fluorimetric assay
[6] = target: T3, M-phase inducer phosphatase 2 (Homo sapiens) (UniProt P30305); test: Inhibition of human recombinant GST-tagged CDC25B catalytic domain transfected in Escherichia coli BL21-DE3 using 3-O-methylfluorescein phosphate as substrate at 10 uM incubated for 20 mins followed by substrate addition measured every 10 mins for 2 hrs by fluorimetric assay
T3 sequence (whole entry): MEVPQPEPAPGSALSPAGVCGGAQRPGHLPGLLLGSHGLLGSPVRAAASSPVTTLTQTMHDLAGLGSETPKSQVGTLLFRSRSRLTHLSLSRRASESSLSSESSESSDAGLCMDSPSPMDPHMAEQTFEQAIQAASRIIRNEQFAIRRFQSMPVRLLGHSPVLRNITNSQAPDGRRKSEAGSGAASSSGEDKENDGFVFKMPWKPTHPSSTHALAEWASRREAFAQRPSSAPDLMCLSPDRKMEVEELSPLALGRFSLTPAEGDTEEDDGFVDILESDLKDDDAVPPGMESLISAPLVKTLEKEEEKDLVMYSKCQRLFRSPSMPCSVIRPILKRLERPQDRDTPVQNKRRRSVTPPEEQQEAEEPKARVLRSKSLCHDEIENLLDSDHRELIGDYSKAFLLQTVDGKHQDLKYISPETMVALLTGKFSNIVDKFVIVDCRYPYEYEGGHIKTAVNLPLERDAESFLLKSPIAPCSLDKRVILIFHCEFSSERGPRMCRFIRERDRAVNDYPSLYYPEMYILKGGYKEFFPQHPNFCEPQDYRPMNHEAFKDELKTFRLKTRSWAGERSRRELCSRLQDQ

[7] = target: T2, M-phase inducer phosphatase 1 (Homo sapiens); test: as §3, with “assay in presence of 0.05% triton X 100” for “assay”
[8] = Cytotoxicity against human HCT116 cells assessed as inhibition of cell growth after 72 hrs by MTT assay; type: functional, cell-based; settings: HCT-116, 72 h
MCF7 [9] = test: Induction of reactive oxygen species production in human MCF7 cells at IC50 concentration up to 6 hrs by DCF-2DA dye based flow cytometry; type: functional, cell-based
[10] = target: T4, M-phase inducer phosphatase 3 (Homo sapiens) (UniProt P30307); test: Inhibition of human recombinant full length GST-tagged CDC25C transfected in Escherichia coli BL21-DE3 using 3-O-methylfluorescein phosphate as substrate at 10 uM incubated for 20 mins followed by substrate addition measured every 10 mins for 2 hrs by fluorimetric assay
T4 sequence (whole entry): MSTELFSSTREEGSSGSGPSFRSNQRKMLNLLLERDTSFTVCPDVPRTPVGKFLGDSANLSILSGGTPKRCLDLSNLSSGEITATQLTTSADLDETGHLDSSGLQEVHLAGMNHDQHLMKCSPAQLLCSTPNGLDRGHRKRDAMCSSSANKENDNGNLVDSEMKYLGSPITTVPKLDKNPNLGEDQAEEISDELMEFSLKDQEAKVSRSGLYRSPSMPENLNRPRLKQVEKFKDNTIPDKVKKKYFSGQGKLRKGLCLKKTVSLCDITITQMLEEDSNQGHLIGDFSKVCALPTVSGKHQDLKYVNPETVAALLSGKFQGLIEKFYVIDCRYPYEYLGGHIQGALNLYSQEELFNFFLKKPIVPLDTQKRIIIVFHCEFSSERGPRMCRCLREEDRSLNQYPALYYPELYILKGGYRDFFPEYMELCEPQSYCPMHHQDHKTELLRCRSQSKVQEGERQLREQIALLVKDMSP

[11] = target: T1, M-phase inducer phosphatase 1; test: as §2, with “at 5” for “at 20”
MCF7 [12] = test: Induction of apoptosis in human MCF7 cells assessed as chromatin condensation after 24 to 48 hrs by DAPI staining based UV fluorescent microscopy; type: functional, cell-based
[13] = target: T2, M-phase inducer phosphatase 1 (Homo sapiens); test: (§4) Inhibition of human recombinant full length GST-tagged CDC25A transfected in Escherichia coli BL21-DE3 using 3-O-methylfluorescein phosphate as substrate at 10 uM incubated for 20 mins followed by substrate addition measured every 10 mins for 2 hrs by fluorimetric assay in presence of 0.1% BSA
MCF7 [14] = test: Cytotoxicity against human MCF7 cells assessed as inhibition of cell growth at IC50 concentration after 72 hrs by trypan blue assay; type: functional
[15] = target: T2, M-phase inducer phosphatase 1 (Homo sapiens); test: as §4, with “triton X 100” for “BSA”

Structure (SMILES): COc1ccc(/C=C2/S/C(=N\c3nc4cc(-c5ccc(Cl)cc5)sc4s3)NC2=O)cc1
- IC50 [1]: 6.2 µM
- Ki [2]: 3.9 µM
- Activity (MCF7 [3]): 25.3%
- inhibition [4]: 97.5%
- IC50 (HT-29): 10.3 µM
- inhibition [5]: 70.3%
- inhibition [6]: 36.7%
- inhibition [7]: 54.4%
- IC50 [8]: 9.2 µM
- Activity (MCF7 [9]): inactive
- inhibition [10]: 24%
- Ki [11]: 12.2 µM
- Activity (MCF7 [12]): inactive
- inhibition [13]: 21.8%
- growth inhibition (GI) (MCF7 [14]): 45%
- inhibition [15]: 86.2%
